Source: patent US20170248582A1, “Mixed Spheroids of Melanocytes and Keratinocytes” (Syntivia, priority 2014, published 2017)
“Also recorded” adds a separate entry of the source.

Tests used:
[1] = system: mixed spheroids of keratinocytes and melanocytes; assay: Assay of melanin on mixed spheroids after treatment (photometry, melanin / total proteins); type: cell-based, Human
Experimental: The cells were lysed in a solution of 1M NaOH+10% DMSO and incubated 30 min at 90° C. A standard range was prepared with synthetic melanin and read-out performed at a wavelength of 405 nm. Assay of total proteins was performed on the lysate of melanin assay using the microBCA kit in accordance with the supplier's instructions. A standard range was prepared with BSA and read-out was performed at a wavelength of 605 nm. The results are expressed in the form of a ratio between the assay of melanin and assay of total proteins. 24 h after seeding, the mixed spheroids of the invention such as prepared in Example 1, and after removal of Matrigel® by washing with PBS, were treated with 300 μM IBMX or 500 μM PTU for 5 days with renewal of treatment at 4 days. The melanin was assayed as explained in Example 3.

[2] = system: genes MITF, TYR, TYRP1 and PMEL in mixed spheroids of keratinocytes and melanocytes; assay: Quantification of pigmentation gene expression by quantitative PCR in mixed spheroids; type: cell-based, Human; conditions: 300 μM IBMX for 24 h, normalised to GAPDH, vs non-treated control
Experimental: 48 h after their seeding the mixed spheroids of the invention such as prepared in Example 1, and after removal of Matrigel® by washing with PBS, were treated with 300 μM IBMX for 24 h. The spheroids were collected and washed with PBS after 24 h treatment with IBMX. The RNAs were extracted and reverse-transcribed to cDNA. Quantitative PCR was then performed to quantify the expression of the genes MITF, TYR, TYRP1 and PMEL. The expression of these genes was normalised by expression of the GAPDH housekeeping gene and compared with the non-treated control.

Structure (SMILES): CC(C)Cn1c(=O)n(C)c(=O)c2[nH]cnc21 [IBMX, 3-isobutyl-1-methylxanthine]
- induction of the amount of melanin in relation to total proteins ([1]; 300 μM IBMX for 5 days, renewal at 4 days, vs solvent control (DMSO)): 50%
- total amount of melanin in the mixed spheroid ([1]; 300 μM IBMX for 5 days, compared with solvent control (DMSO), FIG. 8): increase in the total amount of melanin
- MITF expression, increased by a factor of [2]: 5
- expression of MITF gene ([2]; FIG. 9): induced; also recorded: expression increased
- expression of PMEL gene ([2]; FIG. 9): induced; also recorded: increased
- expression of TYR gene ([2]; FIG. 9): induced; also recorded: increased
- expression of TYRP1 gene ([2]; FIG. 9): induced; also recorded: increased

Structure (SMILES): CCCc1cc(=O)[nH]c(=S)[nH]1 [PTU, propylthiouracil]
- global amount of melanin in the mixed spheroid / melanin production ([1]; 500 μM PTU for 5 days, compared with solvent control (EtOH), FIG. 8): inhibits melanin production; also recorded: decrease in the global amount of melanin
